This note sets out measurements from ChEMBL document CHEMBL1649169, “Multiresistance in Pasteurella multocida is mediated by coexistence of small plasmids” (2009).

SMILES strings stand for the structures. Converted amounts (≈) assume the structure as drawn. A value given as a limit tells only on which side of the number the result lay.

A word on the MIC: it is the least concentration at which growth counts as inhibited. Higher therefore signals a need for much substance.

Holding throughout (type): functional
Assay [1] has as its system Pasteurella multocida. Briefly: Antibacterial activity against Pasteurella multocida BB1037 harboring plasmid pB1000 bearing blaROB-1 gene and plasmid pB1005 bearing strA, sul2 genes by CLSI M31-A3 broth microdilution method.
Assay [2] has as its system Pasteurella multocida. Put plainly: Antibacterial activity against Pasteurella multocida BB1041 harboring plasmid pB1000 bearing blaROB-1 gene and plasmid pB9956 bearing tetH gene by CLSI M31-A3 broth microdilution method. (In general: In broth dilution the organism is exposed to a series of concentrations in liquid medium.)
Assay [3] concerns Pasteurella multocida. Put plainly: Antibacterial activity against Pasteurella multocida BB1038 harboring plasmid pB1000 bearing blaROB-1 gene and plasmid pB1005 bearing strA, sul2 genes by CLSI M31-A3 broth microdilution method.
Assay [4] has as its system Pasteurella multocida. Briefly: Antibacterial activity against Pasteurella multocida BB1036 harboring plasmid pB1000 bearing blaROB-1 gene and plasmid pB1005 bearing strA, sul2 genes by CLSI M31-A3 broth microdilution method.
The test system of assay [5] is Pasteurella multocida. Briefly: Antibacterial activity against Pasteurella multocida BB1035 harboring plasmid pB1000 bearing blaROB-1 gene and plasmid pB1005 bearing strA, sul2 genes by CLSI M31-A3 broth microdilution method.
The test system of assay [6] is Pasteurella multocida. Put plainly: Antibacterial activity against Pasteurella multocida BB1042 harboring plasmid pB1000 bearing blaROB-1 gene and plasmid pB9956 bearing tetH gene by CLSI M31-A3 broth microdilution method.
Assay [7] concerns Pasteurella multocida. Briefly: Antibacterial activity against Pasteurella multocida BB1045 harboring plasmid pB1000 bearing blaROB-1 gene and plasmid pB9956 bearing tetH gene by CLSI M31-A3 broth microdilution method.
Assay [8] deals with Pasteurella multocida. Put plainly: Antibacterial activity against Pasteurella multocida BB1040 harboring plasmid pB1000 bearing blaROB-1 gene and plasmid pB9956 bearing tetH gene by CLSI M31-A3 broth microdilution method.
For assay [9], the system named is Pasteurella multocida. Put plainly: Antibacterial activity against Pasteurella multocida ATCC 43137 by CLSI M31-A3 broth microdilution method.
The test system of assay [10] is Pasteurella multocida. Put plainly: Antibacterial activity against Pasteurella multocida BB1039 harboring plasmid pB1000 bearing blaROB-1 gene and plasmid pB9956 bearing tetH gene by CLSI M31-A3 broth microdilution method.
Assay [11] has as its system Pasteurella multocida. Briefly: Antibacterial activity against Pasteurella multocida BB1044 harboring plasmid pB1000 bearing blaROB-1 gene, plasmid 1006 bearing tetO gene and plasmid pB1005 bearing strA, sul2 genes by CLSI M31-A3 broth microdilution method.
The subject of assay [12] is Pasteurella multocida. Put plainly: Antibacterial activity against Pasteurella multocida BB1043 harboring plasmid pB1000 bearing blaROB-1 gene and plasmid pB9956 bearing tetH gene by CLSI M31-A3 broth microdilution method.
For assay [13], the system named is Pasteurella multocida. Put plainly: Antibacterial activity against Pasteurella multocida BB1034 harboring plasmid pB1000 bearing blaROB-1 gene and plasmid pB1001 bearing tetB gene by CLSI M31-A3 broth microdilution method.
The test system of assay [14] is Pasteurella multocida. Briefly: Antibacterial activity against Pasteurella multocida BB1046 harboring plasmid pB1003 bearing blaROB-1 gene and plasmid pB1002 bearing strA, sul2 genes by CLSI M31-A3 broth microdilution method.

As for `CO/N=C(\C(=O)N[C@@H]1C(=O)N2C(C(=O)O)=C(COC(C)=O)CS[C@H]12)c1csc(N)n1` [CEFOTAXIME], the minimum inhibitory concentration (MIC) with Pasteurella multocida [1] came out at 1 µg/mL (≈ 2.2 µM); in the assay with Pasteurella multocida [2], 1 µg/mL (≈ 2.2 µM); with Pasteurella multocida [3], 1 µg/mL (≈ 2.2 µM); against Pasteurella multocida [4] it was 1 µg/mL (≈ 2.2 µM); in the assay with Pasteurella multocida [5], 0.5 µg/mL (≈ 1.1 µM); with Pasteurella multocida [6], 1 µg/mL (≈ 2.2 µM). Also, the minimal inhibitory concentration (MIC) was 1 µg/mL (≈ 2.2 µM) in the assay with Pasteurella multocida [7]; 1 µg/mL (≈ 2.2 µM) in the assay with Pasteurella multocida [8]; not above 0.06 µg/mL in the assay with Pasteurella multocida [9]; 1 µg/mL (≈ 2.2 µM) against Pasteurella multocida [10]; 1 µg/mL (≈ 2.2 µM) against Pasteurella multocida [11]; 1 µg/mL (≈ 2.2 µM) in the assay on Pasteurella multocida [12]. Further, the values for the minimum inhibitory concentration (MIC) against Pasteurella multocida [13] and against Pasteurella multocida [14] were 1 µg/mL (≈ 2.2 µM) and 0.5 µg/mL (≈ 1.1 µM), respectively.

As to `CC1(C)S[C@@H]2[C@H](NC(=O)[C@H](N)c3ccc(O)cc3)C(=O)N2[C@H]1C(=O)O` [AMOXICILLIN], the MIC with Pasteurella multocida [1], against Pasteurella multocida [2], in the assay on Pasteurella multocida [3], against Pasteurella multocida [4], against Pasteurella multocida [5] and in the assay on Pasteurella multocida [6] was more than 256 µg/mL each time. For the same compound, the MIC against Pasteurella multocida [7] is more than 256 µg/mL; against Pasteurella multocida [8], more than 256 µg/mL; in the assay with Pasteurella multocida [9], not above 1 µg/mL; in the assay with Pasteurella multocida [10], more than 256 µg/mL; against Pasteurella multocida [11] it was more than 256 µg/mL; in the assay on Pasteurella multocida [12] it was more than 256 µg/mL. Also, the MIC in the assay with Pasteurella multocida [13] and with Pasteurella multocida [14] was more than 256 µg/mL in each case.

`Cc1cc(NS(=O)(=O)c2ccc(N)cc2)no1` [SULFAMETHOXAZOLE]: the MIC against Pasteurella multocida [1], against Pasteurella multocida [2], in the assay on Pasteurella multocida [3], against Pasteurella multocida [4], against Pasteurella multocida [5] and against Pasteurella multocida [6] was more than 256 µg/mL in each case. The MIC in the assay on Pasteurella multocida [7], against Pasteurella multocida [8], in the assay on Pasteurella multocida [9], with Pasteurella multocida [10], against Pasteurella multocida [11] and in the assay with Pasteurella multocida [12] was more than 256 µg/mL each time. The minimal inhibitory concentration (MIC) in the assay with Pasteurella multocida [13] and against Pasteurella multocida [14] was more than 256 µg/mL throughout.

Turning to `CN(C)[C@@H]1C(O)=C(C(N)=O)C(=O)[C@@]2(O)C(O)=C3C(=O)c4c(O)cccc4[C@@](C)(O)[C@H]3C[C@@H]12` [TETRACYCLINE], the MIC amounted to 2 µg/mL (≈ 4.5 µM) with Pasteurella multocida [1]; 32 µg/mL (≈ 72 µM) against Pasteurella multocida [2]; 2 µg/mL (≈ 4.5 µM) against Pasteurella multocida [3]; 2 µg/mL (≈ 4.5 µM) against Pasteurella multocida [4]; 2 µg/mL (≈ 4.5 µM) in the assay on Pasteurella multocida [5]; 32 µg/mL (≈ 72 µM) in the assay on Pasteurella multocida [6]. In addition, the MIC against Pasteurella multocida [7] was 32 µg/mL (≈ 72 µM); in the assay on Pasteurella multocida [8] it was 32 µg/mL (≈ 72 µM); against Pasteurella multocida [9] it was 2 µg/mL (≈ 4.5 µM); in the assay with Pasteurella multocida [10] it was 32 µg/mL (≈ 72 µM); in the assay with Pasteurella multocida [11], 32 µg/mL (≈ 72 µM); against Pasteurella multocida [12] it was 32 µg/mL (≈ 72 µM). Moreover, the MIC with Pasteurella multocida [13] amounted to 16 µg/mL (≈ 36 µM); in the assay on Pasteurella multocida [14], 1 µg/mL (≈ 2.25 µM).

With `CN[C@@H]1[C@H](O[C@H]2[C@H](O[C@H]3[C@H](O)[C@@H](O)[C@H](N=C(N)N)[C@@H](O)[C@@H]3N=C(N)N)O[C@@H](C)[C@]2(O)C=O)O[C@@H](CO)[C@H](O)[C@H]1O` [STREPTOMYCIN], the minimum inhibitory concentration (MIC) is more than 256 µg/mL against Pasteurella multocida [1]; 16 µg/mL (≈ 27.5 µM) in the assay on Pasteurella multocida [2]; more than 256 µg/mL with Pasteurella multocida [3]; more than 256 µg/mL with Pasteurella multocida [4]; more than 256 µg/mL with Pasteurella multocida [5]; 8 µg/mL (≈ 13.8 µM) in the assay on Pasteurella multocida [6]. For the same compound, the MIC in the assay with Pasteurella multocida [7] was 16 µg/mL (≈ 27.5 µM); in the assay on Pasteurella multocida [8], 16 µg/mL (≈ 27.5 µM); with Pasteurella multocida [9], 8 µg/mL (≈ 13.8 µM); with Pasteurella multocida [10], 8 µg/mL (≈ 13.8 µM); in the assay on Pasteurella multocida [11], more than 256 µg/mL; with Pasteurella multocida [12] it was 8 µg/mL (≈ 13.8 µM). The minimum inhibitory concentration (MIC) is 32 µg/mL (≈ 55 µM) in the assay with Pasteurella multocida [13] and more than 256 µg/mL against Pasteurella multocida [14].

Regarding `N[C@@H](C(=O)N[C@@H]1C(=O)N2C(C(=O)O)=C(Cl)CS[C@H]12)c1ccccc1` [CEFACLOR ANHYDROUS], the minimal inhibitory concentration (MIC) against Pasteurella multocida [1], in the assay on Pasteurella multocida [2], against Pasteurella multocida [3], in the assay on Pasteurella multocida [4], in the assay with Pasteurella multocida [5] and in the assay on Pasteurella multocida [6] was more than 16 µg/mL in each case. For the same compound, the minimum inhibitory concentration (MIC) against Pasteurella multocida [7] is more than 16 µg/mL; in the assay with Pasteurella multocida [8], more than 16 µg/mL; against Pasteurella multocida [9], not above 1 µg/mL; against Pasteurella multocida [10], more than 16 µg/mL; with Pasteurella multocida [11] it was more than 16 µg/mL; against Pasteurella multocida [12], more than 16 µg/mL. Moreover, the MIC with Pasteurella multocida [13] and against Pasteurella multocida [14] was more than 16 µg/mL each time.

Take `CC1(C)S[C@@H]2[C@H](NC(=O)Cc3ccccc3)C(=O)N2[C@H]1C(=O)O` [PENICILLIN G]: the minimum inhibitory concentration (MIC) with Pasteurella multocida [1], in the assay on Pasteurella multocida [2], against Pasteurella multocida [3], in the assay with Pasteurella multocida [4], with Pasteurella multocida [5] and against Pasteurella multocida [6] was more than 16 µg/mL in each case. For the same compound, the minimum inhibitory concentration (MIC) against Pasteurella multocida [7] is more than 16 µg/mL; with Pasteurella multocida [8], more than 16 µg/mL; in the assay with Pasteurella multocida [9] it was not above 0.03 µg/mL; against Pasteurella multocida [10], more than 16 µg/mL; with Pasteurella multocida [11], more than 16 µg/mL; with Pasteurella multocida [12] it was more than 16 µg/mL. In addition, the minimum inhibitory concentration (MIC) in the assay with Pasteurella multocida [13] and in the assay with Pasteurella multocida [14] was more than 16 µg/mL in each case.
